The values below are quoted from earlier work in patent US6521254B2, “Single-dose antihistamine/decongestant formulations for treating rhinitis” (J-Med Pharmaceuticals, Inc., priority 1998, dated 2003).

One series deals with histamine receptors. Conditions: for duration of therapeutic benefit suitable for dosing interval (FDA standard, labeling): cetirizine 5 mg and 10 mg, loratidine 10 mg, fexofenadine 180 mg.
For series [1] the following is noted: compared with other non-sedating and with sedating antihistamines.
For series [2] the following is noted: 30 mg pseudoephedrine, immediate release, syrup.

With `O=C(O)COCCN1CCN(C(c2ccccc2)c2ccc(Cl)cc2)CC1` (centres unmarked) [cetirizine], the “duration of therapeutic antihistaminic benefit” value in the series on histamine receptors (5 mg cetirizine, immediate release) is 24 h. The “duration of therapeutic benefit suitable for dosing interval (FDA standard, labeling)” value in the series on histamine receptors is 24 h. Besides, the “duration of antihistaminic effect” value in the series on histamine receptors (oral, human) is 24 h. In addition, the “time after dosing at which antihistaminic effect is exerted (onset)” value in the series with histamine receptors (oral, human, given alone / immediate release) is on record as “one”. The sedation result in series [1] was “slightly more sedation than other non-sedating antihistamines”.
Regarding `CN[C@@H](C)[C@@H](O)c1ccccc1` [pseudoephedrine], the duration of action in series [2] was 4 to 6 h.
With `CCOC(=O)N1CCC(=C2c3ccc(Cl)cc3CCc3cccnc32)CC1` [loratidine], in the series on histamine receptors, the “duration of therapeutic benefit suitable for dosing interval (FDA standard, labeling)” value was 24 h. For the same compound, the “duration of antihistaminic effect” value in the series on histamine receptors (oral, human) was above 24 h.
